Assay results taken from patent US9790178B2, “Pyrrolidinyl urea, thiourea, guanidine and cyanoguanidine compounds as TrkA kinase inhibitors” (Array BioPharma Inc., priority 2012, dated 2017).

Assays:
[1] = molecular target: T1, His-tagged recombinant human TrkA (Homo sapiens, UniProt P04629); assay: TrkA LanthaScreen Eu Kinase Binding Assay; details: averaged IC50 values; read-out: TrkA enzyme IC50
T1 construct: 6HIS tagged cytoplasmic domain from Invitrogen, Catalog No. PV3144; purchased Invitrogen PV3144
Protocol: TrkA binding activity was determined in a TrkA LanthaScreen™ Eu Kinase Binding Assay. 5 nM His-tagged recombinant human TrkA (6HIS tagged cytoplasmic domain from Invitrogen, Catalog No. PV3144) was incubated with 4 nM Alexa-Fluor® Tracer 236 (Invitrogen Cat. No. PV5592), 2 nM biotinylated anti-His (Invitrogen Cat. No. PV6090), and 2 nM europium-labeled Streptavidin (Invitrogen Cat. No. PV5899), in buffer (25 mM MOPS, pH 7.5, 5 mM MgCl2, 0.005% Triton X-100). Three fold serial dilutions of compounds of the invention in DMSO were added to a final percentage of 2% DMSO. After 60-minute incubation at 22° C., the reaction was measured using the EnVision mutlimode plate reader (PerkinElmer) via TR-FRET dual wavelength detection at […]. The percent of control was calculated using a ratiometric emission factor. The IC50 values were determined by fitting a four parameter model to the percent of control data.
Table A provides averaged IC50 values for compounds of the invention when tested in the assay of Example A, where A represents an averaged IC50 value <100 nM; and B represents an averaged IC50 value from 100 to 1,000 nM.

[2] = molecular target: T2, AKT2 (Homo sapiens, UniProt P31751); assay: KinaseProfiler off-target kinase profiling; assay type: biochemical; details: 10 μM, ATP near Km
T2 construct: purchased Millipore, Inc. (KinaseProfiler service)
In short: (§1)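 Values are percent of control (POC), the mean of two replicate runs. The compound was assayed at 10 μM, and the ATP level was set close to the Km of the individual kinase.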

[3] = molecular target: T3, AKT3 (Homo sapiens, UniProt Q9Y243); assay: KinaseProfiler off-target kinase profiling; assay type: biochemical; details: 10 μM, ATP near Km
T3 construct: purchased Millipore, Inc. (KinaseProfiler service)
In short: as §1

[4] = molecular target: T4, BLK_m (Mus musculus, UniProt P16277); assay: KinaseProfiler off-target kinase profiling; assay type: biochemical; details: 10 μM, ATP near Km
T4 construct: purchased Millipore, Inc. (KinaseProfiler service)
In short: as §1

[5] = molecular target: T5, CDK5/p35 (Homo sapiens, UniProt Q00535); assay: KinaseProfiler off-target kinase profiling; assay type: biochemical; details: 10 μM, ATP near Km
T5 construct: purchased Millipore, Inc. (KinaseProfiler service)
In short: as §1

[6] = molecular target: T6, DRAK1 (Homo sapiens, UniProt Q9UEE5); assay: KinaseProfiler off-target kinase profiling; assay type: biochemical; details: 10 μM, ATP near Km
T6 construct: purchased Millipore, Inc. (KinaseProfiler service)
In short: as §1

[7] = molecular target: T7, EphB2 (Homo sapiens, UniProt P29323); assay: KinaseProfiler off-target kinase profiling; assay type: biochemical; details: 10 μM, ATP near Km
T7 construct: purchased Millipore, Inc. (KinaseProfiler service)
In short: as §1

[8] = molecular target: T8, EphB3 (Homo sapiens, UniProt P54753); assay: KinaseProfiler off-target kinase profiling; assay type: biochemical; details: 10 μM, ATP near Km
T8 construct: purchased Millipore, Inc. (KinaseProfiler service)
In short: as §1

[9] = molecular target: T9, Fms (Homo sapiens, UniProt P07333); assay: KinaseProfiler off-target kinase profiling; assay type: biochemical; details: 10 μM, ATP near Km
T9 construct: purchased Millipore, Inc. (KinaseProfiler service)
In short: as §1

[10] = molecular target: T10, GRK7 (Homo sapiens, UniProt Q8WTQ7); assay: KinaseProfiler off-target kinase profiling; assay type: biochemical; details: 10 μM, ATP near Km
T10 construct: purchased Millipore, Inc. (KinaseProfiler service)
In short: as §1

[11] = molecular target: T11, HIPK2 (Homo sapiens, UniProt Q9H2X6); assay: KinaseProfiler off-target kinase profiling; assay type: biochemical; details: 10 μM, ATP near Km
T11 construct: purchased Millipore, Inc. (KinaseProfiler service)
In short: as §1

[12] = molecular target: T12, HIPK3 (Homo sapiens, UniProt Q9H422); assay: KinaseProfiler off-target kinase profiling; assay type: biochemical; details: 10 μM, ATP near Km
T12 construct: purchased Millipore, Inc. (KinaseProfiler service)
In short: as §1

[13] = molecular target: T13, MEK1 (Homo sapiens, UniProt Q02750); assay: KinaseProfiler off-target kinase profiling; assay type: biochemical; details: 10 μM, ATP near Km
T13 construct: purchased Millipore, Inc. (KinaseProfiler service)
In short: as §1

[14] = molecular target: T14, MuSK (Homo sapiens, UniProt O15146); assay: KinaseProfiler off-target kinase profiling; assay type: biochemical; details: 10 μM, ATP near Km
T14 construct: purchased Millipore, Inc. (KinaseProfiler service)
In short: as §1

[15] = molecular target: T15, PAK5 (Homo sapiens, UniProt Q9P286); assay: KinaseProfiler off-target kinase profiling; assay type: biochemical; details: 10 μM, ATP near Km
T15 construct: purchased Millipore, Inc. (KinaseProfiler service)
In short: as §1

[16] = molecular target: T16, PAK6 (Homo sapiens, UniProt Q9NQU5); assay: KinaseProfiler off-target kinase profiling; assay type: biochemical; details: 10 μM, ATP near Km
T16 construct: purchased Millipore, Inc. (KinaseProfiler service)
In short: as §1

[17] = molecular target: T17, PKCbetaI (Homo sapiens, UniProt P05771); assay: KinaseProfiler off-target kinase profiling; assay type: biochemical; details: 10 μM, ATP near Km
T17 construct: purchased Millipore, Inc. (KinaseProfiler service)
In short: as §1

[18] = molecular target: T18, PKCiota (Homo sapiens, UniProt P41743); assay: KinaseProfiler off-target kinase profiling; assay type: biochemical; details: 10 μM, ATP near Km
T18 construct: purchased Millipore (KinaseProfiler service)
In short: as §1

[19] = molecular target: T19, PhKgamma2 (Homo sapiens, UniProt P15735); assay: KinaseProfiler off-target kinase profiling; assay type: biochemical; details: 10 μM, ATP near Km
T19 construct: purchased Millipore, Inc. (KinaseProfiler service)
In short: as §1

[20] = molecular target: T20, TSSK2 (Homo sapiens, UniProt Q96PF2); assay: KinaseProfiler off-target kinase profiling; assay type: biochemical; details: 10 μM, ATP near Km
T20 construct: purchased Millipore, Inc. (KinaseProfiler service)
In short: as §1

[21] = molecular target: T21, Tie2 (Homo sapiens, UniProt Q02763); assay: KinaseProfiler off-target kinase profiling; assay type: biochemical; details: 10 μM, ATP near Km
T21 construct: purchased Millipore, Inc. (KinaseProfiler service)
In short: as §1

[22] = molecular target: T22, ULK2 (Homo sapiens, UniProt Q8IYT8); assay: KinaseProfiler off-target kinase profiling; assay type: biochemical; details: 10 μM, ATP near Km
T22 construct: purchased Millipore, Inc. (KinaseProfiler service)
In short: as §1

[23] = molecular target: T23, Yes (Homo sapiens, UniProt P07947); assay: KinaseProfiler off-target kinase profiling; assay type: biochemical; details: 10 μM, ATP near Km
T23 construct: purchased Millipore, Inc. (KinaseProfiler service)
In short: as §1

[24] = molecular target: T24, mTOR (Homo sapiens, UniProt P42345); assay: KinaseProfiler off-target kinase profiling; assay type: biochemical; details: 10 μM, ATP near Km
T24 construct: purchased Millipore, Inc. (KinaseProfiler service)
In short: as §1

[25] = molecular target: T25, mTOR/FKBP12 (Homo sapiens, UniProt P42345); assay: KinaseProfiler off-target kinase profiling; assay type: biochemical; details: 10 μM, ATP near Km
T25 construct: purchased Millipore, Inc. (KinaseProfiler service)
In short: as §1

[26] = test system: off-target kinases (panel of about 230 other kinases); assay: KinaseProfiler full kinase panel, overall selectivity; assay type: biochemical; details: 10 μM concentration
Protocol: A representative compound of the invention (Example 20) was tested for off-target kinase activity at a concentration of 10 μM by Millipore, Inc. in their KinaseProfiler™ service against all the kinases available in their full kinase panel. The compound was run in duplicate at a concentration of ATP near the Km for each individual kinase according to Millipore's specifications. The results are shown in Table B. Data are reported as percent of control (POC) and are the average of the two replicates.
Such a drug profile would represent a safer approach to treating pain, inflammation, cancer and certain skin diseases than has been previously reported.

T12 sequence (Q9H422 whole entry): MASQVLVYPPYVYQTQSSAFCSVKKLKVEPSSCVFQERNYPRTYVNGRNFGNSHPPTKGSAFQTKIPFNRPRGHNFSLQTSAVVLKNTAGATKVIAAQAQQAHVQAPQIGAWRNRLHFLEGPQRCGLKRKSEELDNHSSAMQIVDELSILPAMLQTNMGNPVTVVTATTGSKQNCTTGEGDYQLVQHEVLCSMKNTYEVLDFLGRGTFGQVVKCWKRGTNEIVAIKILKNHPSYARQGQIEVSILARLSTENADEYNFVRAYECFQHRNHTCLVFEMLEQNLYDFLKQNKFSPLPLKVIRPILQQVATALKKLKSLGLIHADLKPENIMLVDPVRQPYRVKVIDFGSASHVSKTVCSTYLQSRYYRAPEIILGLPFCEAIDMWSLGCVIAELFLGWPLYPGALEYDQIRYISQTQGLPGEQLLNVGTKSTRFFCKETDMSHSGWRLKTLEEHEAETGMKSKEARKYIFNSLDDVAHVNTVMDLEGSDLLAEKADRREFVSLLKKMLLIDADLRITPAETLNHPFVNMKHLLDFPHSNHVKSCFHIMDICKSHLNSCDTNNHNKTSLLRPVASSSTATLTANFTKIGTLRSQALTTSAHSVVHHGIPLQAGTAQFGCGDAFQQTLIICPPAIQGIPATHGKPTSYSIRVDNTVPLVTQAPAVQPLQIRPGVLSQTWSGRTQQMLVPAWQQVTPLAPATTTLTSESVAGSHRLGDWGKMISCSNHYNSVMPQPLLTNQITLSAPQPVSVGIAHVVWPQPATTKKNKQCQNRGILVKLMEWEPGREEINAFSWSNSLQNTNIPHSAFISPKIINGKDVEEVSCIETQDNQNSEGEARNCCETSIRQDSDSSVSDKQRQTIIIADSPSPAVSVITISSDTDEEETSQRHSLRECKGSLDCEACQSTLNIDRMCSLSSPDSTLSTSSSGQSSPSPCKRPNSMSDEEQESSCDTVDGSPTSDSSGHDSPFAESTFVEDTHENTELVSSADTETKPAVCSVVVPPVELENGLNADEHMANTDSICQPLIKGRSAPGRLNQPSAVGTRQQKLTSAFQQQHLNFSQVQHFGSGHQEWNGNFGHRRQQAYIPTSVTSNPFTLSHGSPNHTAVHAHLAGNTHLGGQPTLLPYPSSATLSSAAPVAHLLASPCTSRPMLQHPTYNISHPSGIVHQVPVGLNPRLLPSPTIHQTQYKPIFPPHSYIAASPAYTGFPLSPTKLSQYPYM
T16 sequence (Q9NQU5 whole entry): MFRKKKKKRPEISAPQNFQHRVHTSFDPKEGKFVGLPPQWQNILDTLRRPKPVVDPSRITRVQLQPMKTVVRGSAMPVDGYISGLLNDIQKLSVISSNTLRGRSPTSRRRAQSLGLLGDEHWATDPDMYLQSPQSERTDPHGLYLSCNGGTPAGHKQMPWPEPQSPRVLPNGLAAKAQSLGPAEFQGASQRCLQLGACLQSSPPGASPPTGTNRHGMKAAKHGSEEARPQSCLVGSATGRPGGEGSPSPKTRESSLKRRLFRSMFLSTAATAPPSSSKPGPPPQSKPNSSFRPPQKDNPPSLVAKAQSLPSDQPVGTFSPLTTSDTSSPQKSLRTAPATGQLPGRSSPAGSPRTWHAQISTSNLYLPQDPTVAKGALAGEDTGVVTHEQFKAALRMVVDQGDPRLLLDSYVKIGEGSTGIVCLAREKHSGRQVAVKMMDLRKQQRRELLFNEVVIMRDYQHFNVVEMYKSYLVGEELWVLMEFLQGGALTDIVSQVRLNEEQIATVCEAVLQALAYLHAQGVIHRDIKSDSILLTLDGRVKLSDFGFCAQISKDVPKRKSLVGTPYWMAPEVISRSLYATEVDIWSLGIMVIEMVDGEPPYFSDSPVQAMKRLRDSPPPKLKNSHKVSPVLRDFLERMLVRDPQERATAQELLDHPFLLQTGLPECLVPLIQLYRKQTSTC
T19 sequence (P15735 whole entry): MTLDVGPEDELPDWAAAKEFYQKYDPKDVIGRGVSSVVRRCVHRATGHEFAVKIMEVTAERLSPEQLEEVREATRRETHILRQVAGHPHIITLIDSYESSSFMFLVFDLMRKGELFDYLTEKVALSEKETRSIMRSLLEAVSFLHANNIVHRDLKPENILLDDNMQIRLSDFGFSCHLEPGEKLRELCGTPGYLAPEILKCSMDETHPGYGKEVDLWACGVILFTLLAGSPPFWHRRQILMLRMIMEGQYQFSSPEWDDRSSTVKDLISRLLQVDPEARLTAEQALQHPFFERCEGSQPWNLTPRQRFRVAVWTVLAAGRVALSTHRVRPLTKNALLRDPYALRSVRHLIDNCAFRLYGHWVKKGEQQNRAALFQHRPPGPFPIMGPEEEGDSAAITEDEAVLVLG
T21 sequence (Q02763 23-1124): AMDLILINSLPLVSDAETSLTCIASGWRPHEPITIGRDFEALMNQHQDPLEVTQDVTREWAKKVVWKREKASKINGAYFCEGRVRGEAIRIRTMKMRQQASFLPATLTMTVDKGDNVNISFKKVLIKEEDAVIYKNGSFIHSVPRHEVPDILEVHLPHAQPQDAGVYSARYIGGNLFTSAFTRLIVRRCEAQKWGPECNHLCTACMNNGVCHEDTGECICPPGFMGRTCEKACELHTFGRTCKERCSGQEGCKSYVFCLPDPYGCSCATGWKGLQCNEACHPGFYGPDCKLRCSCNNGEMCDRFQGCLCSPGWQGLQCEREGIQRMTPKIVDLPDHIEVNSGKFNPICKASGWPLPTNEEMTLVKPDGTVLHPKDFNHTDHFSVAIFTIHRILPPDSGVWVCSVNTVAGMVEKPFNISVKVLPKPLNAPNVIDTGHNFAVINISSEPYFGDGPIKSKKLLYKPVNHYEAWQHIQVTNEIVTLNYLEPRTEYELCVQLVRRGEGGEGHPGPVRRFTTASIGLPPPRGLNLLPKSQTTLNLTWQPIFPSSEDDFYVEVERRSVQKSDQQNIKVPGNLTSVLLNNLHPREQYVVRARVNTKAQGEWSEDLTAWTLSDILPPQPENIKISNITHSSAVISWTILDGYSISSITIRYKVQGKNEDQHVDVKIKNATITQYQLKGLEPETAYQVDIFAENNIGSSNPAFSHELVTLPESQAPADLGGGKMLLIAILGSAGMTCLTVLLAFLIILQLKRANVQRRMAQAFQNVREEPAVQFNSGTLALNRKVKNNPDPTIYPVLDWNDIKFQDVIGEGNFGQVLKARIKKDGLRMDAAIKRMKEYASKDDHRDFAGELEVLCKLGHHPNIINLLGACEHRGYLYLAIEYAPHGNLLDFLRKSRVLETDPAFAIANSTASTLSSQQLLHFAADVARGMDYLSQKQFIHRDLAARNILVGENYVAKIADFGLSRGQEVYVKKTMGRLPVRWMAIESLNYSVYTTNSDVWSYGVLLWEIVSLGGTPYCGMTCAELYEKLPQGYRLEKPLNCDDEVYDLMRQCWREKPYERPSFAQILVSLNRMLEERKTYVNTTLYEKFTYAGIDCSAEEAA
T23 sequence (P07947 whole entry): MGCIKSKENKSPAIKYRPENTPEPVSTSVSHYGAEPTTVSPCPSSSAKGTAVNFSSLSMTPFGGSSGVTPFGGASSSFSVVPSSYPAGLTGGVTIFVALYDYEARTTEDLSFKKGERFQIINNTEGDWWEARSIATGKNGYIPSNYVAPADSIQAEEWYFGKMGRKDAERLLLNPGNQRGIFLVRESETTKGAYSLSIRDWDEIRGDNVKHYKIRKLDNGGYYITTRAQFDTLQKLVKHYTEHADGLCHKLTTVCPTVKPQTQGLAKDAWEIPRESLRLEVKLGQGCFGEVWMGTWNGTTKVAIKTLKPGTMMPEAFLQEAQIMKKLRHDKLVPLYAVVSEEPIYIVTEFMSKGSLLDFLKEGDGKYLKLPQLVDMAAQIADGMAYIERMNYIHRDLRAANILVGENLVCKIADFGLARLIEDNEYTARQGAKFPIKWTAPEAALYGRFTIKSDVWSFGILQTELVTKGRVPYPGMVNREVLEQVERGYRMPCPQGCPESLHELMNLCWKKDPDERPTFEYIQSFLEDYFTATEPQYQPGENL
T10 sequence (Q8WTQ7 whole entry): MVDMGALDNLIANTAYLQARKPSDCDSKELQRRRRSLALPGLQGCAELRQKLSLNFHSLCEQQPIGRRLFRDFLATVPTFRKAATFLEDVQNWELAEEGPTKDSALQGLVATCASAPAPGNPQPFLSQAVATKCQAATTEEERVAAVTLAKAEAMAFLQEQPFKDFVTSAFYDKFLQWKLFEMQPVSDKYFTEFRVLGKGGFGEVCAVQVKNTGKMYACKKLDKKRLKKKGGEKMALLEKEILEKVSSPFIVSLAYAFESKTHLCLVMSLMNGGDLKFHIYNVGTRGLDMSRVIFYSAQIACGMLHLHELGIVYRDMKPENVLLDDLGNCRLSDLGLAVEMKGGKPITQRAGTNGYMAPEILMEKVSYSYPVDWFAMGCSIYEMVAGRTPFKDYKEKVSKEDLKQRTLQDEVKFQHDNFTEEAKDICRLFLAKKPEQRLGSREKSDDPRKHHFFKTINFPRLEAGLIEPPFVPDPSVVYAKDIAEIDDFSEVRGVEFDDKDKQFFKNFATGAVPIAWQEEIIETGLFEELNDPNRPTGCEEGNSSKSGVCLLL
T6 sequence (Q9UEE5 whole entry): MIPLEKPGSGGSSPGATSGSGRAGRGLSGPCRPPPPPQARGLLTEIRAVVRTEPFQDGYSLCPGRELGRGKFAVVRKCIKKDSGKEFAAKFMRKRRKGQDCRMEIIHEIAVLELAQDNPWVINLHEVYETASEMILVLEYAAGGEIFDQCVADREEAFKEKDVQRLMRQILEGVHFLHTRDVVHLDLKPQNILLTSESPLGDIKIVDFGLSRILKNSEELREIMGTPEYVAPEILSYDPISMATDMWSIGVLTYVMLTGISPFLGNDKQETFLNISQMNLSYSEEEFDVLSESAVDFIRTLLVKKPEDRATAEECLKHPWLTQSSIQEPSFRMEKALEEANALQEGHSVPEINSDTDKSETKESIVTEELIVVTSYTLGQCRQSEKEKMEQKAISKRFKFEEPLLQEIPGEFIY

COCCN1C[C@@H](NC(=O)Nc2c(-c3ccccc3)nc3c(C)nccn23)[C@H](c2ccc(F)c(F)c2)C1 [Example 20, 1-((3S,4R)-4-(3,4-difluorophenyl)-1-(2-methoxyethyl)pyrrolidin-3-yl)-3-(8-methyl-2-phenylimidazo[1,2-a]pyrazin-3-yl)urea]
IC50 [1]: < 100 nM | Avg. POC [2]: 131 POC | Avg. POC [3]: 104 POC | Avg. POC [4]: 113 POC | Avg. POC [5]: 121 POC | Avg. POC [6]: 107 POC | Avg. POC [7]: 104 POC | Avg. POC [8]: 107 POC | Avg. POC [9]: 87.5 POC | Avg. POC [10]: 96.5 POC | Avg. POC [11]: 102 POC | Avg. POC [12]: 105.5 POC | Avg. POC [13]: 111 POC | Avg. POC [14]: 108.5 POC | Avg. POC [15]: 105.5 POC | Avg. POC [16]: 102 POC | Avg. POC [17]: 101 POC | Avg. POC [18]: 101.5 POC | Avg. POC [19]: 98.5 POC | Avg. POC [20]: 106 POC | Avg. POC [21]: 119 POC | Avg. POC [22]: 109 POC | Avg. POC [23]: 109 POC | Avg. POC [24]: 108 POC | Avg. POC [25]: 110.5 POC | selectivity for TrkA (and TrkB) versus other kinases in the panel [26]: largely inactive against off-target kinases
